Assay results: US11590117B2, “Treatment of a hematologic malignancy with 2-(4-chlorophenyl)-n-((2-(2,6-dioxopiperidin-3-yl)-1-oxoisoindolin-5-yl)methyl)-2,2-difluoroacetamide” (priority 2016, dated 2023)

Tests used:
selected AML cell lines = experiment: Annexin V/7-AAD flow cytometry apoptosis assay, panel of selected AML cell lines; assay type: cell-based, human; details: after 24 and 48 hours, in 4 out of the 5 cell lines evaluated
Description: Cell Apoptosis Assays: The ability of Compound 1 to induce apoptosis was assessed in selected AML cell lines and healthy PBMCs at the time points and compound concentrations indicated. For Annexin V/7-AAD readout by flow cytometry, AML cell lines were plated into flat bottom 96-well plates (BD Falcon) at a seeding density of 0.1 to 0.3×10^6 cells per mL in 200 μL complete media. Compound 1 was dispensed onto the plates and the cells were incubated for the times indicated. For frozen PBMCs, cells were thawed as previously described and plated at a seeding density of 1×10^6 cells per mL in 200 μL on Corning® BioCoat™ T-Cell Activation Anti-Human CD3 96-well plates (Corning Inc., Corning, N.Y.). Compound 1 was dispensed onto the plates and the cells were incubated for the times indicated. […] One hundred microliters of Annexin V/7-AAD buffer was added per well and the cells incubated for 15 minutes before being analyzed using the Attune Flow Cytometer (Life Technologies, Carlsbad, Calif.). For caspase 3/7 activity, the remaining 100 μL was incubated with CellEvent™ Caspase-3/7 Green ReadyProbes® Reagent (1:1000 dilution; Molecular Probes) for 15 minutes before being analyzed using the Attune Flow Cytometer. […]
Compound 1 Induces Apoptosis in Acute Myeloid Leukemia Cell Lines. […] 0.01 μM and 0.1 μM and apoptosis was assessed over time.

[1] = tested on: Bone marrow mononuclear cells (BMMCs) from high risk MDS patients; experiment: MDS intracellular flow cytometry, active Caspase 3; assay type: cell-based, human; details: 24 hours exposure
Description: Methods. The effect of Compound 1 on high risk MDS samples was measured in an in vitro liquid culture as well as by colony assays in order to better define its effect on stem/progenitor cells. Bone marrow mononuclear cells (BMMCs) from high risk MDS patients were cultured in vitro in CellGro medium (GellGenix) supplemented with hLDL (40 μg/mL), SCF (50 ng/mL), FLT3 […] (50 ng/mL), IL-3 (10 ng/mL), IL-6 (25 ng/mL) and TPO (100 ng/mL), all from Peprotech. During culture, cells were exposed to different concentrations of Compound 1 (37, 111, 333 and 1000 nM) or DMSO control. After 24 hours, cells were washed twice to remove compound and maintained in culture up to one week, performing viable cell counting on days 1, 3 and 7. Just after compound washout, […] per condition were collected for colony forming assays and another […] were stained for intracellular flow cytometry.
For intracellular flow cytometry measurement of apoptosis cells were fixed in 1.6% paraformaldehyde, permeabilized in ice cold methanol and stained using a FITC-conjugated anti-active Caspase 3 antibody (Becton Dickinson). A FACSCanto II flow cytometer (Becton Dickinson) was used for flow cytometry data acquisition. Flow cytometry standard (FCS) files were analyzed using Infinicyt software (Cytognos).

AML cell lines = experiment: CellTiter-Glo (CTG) cell proliferation assay, 72 hours, panel of 11 AML cell lines; assay type: cell-based; details: Homo sapiens, 10 out of the 11 AML cell lines tested (sensitive lines), read-out: antiproliferative IC50 values (range)
Description: Preparation of Solutions of Test Article: Compounds were plated into black 384-well plates (Corning Inc.) to a final DMSO volume of 0.1% assuming a maximal volume of 50 μL. A 10-point dose response starting at 10 μM with a 1:3 dilution was printed in duplicate by acoustic dispense using the EDC ATS-100 platform.
Cell Proliferation Assays: The effect of Compound 1 on the proliferation/viability of the hematological cell lines (Table 1 Table, Table 2 and Table 3), THLE-2, or PBMCs was assessed after 72 hours incubation using CTG (Promega), according to manufacturer's instructions. Hematological cell lines were dispensed into compound plates by a Multidrop™ Combi Reagent Dispenser (Thermo Scientific, Waltham, Mass.) at a concentration of 0.1 to 0.3×10^6 cells per mL in a 50 μL total volume. […] At 72 hours, 25 μL per well of CTG was dispensed by a Multidrop™ Combi Reagent Dispenser and adenosine triphosphate (ATP) release by viable cells was measured as relative luminescence units after 30 minutes using the Envision platform.
Results. […] Compound 1 inhibited cell proliferation in 10 out of 11 AML cell lines assessed, as determined by the quantitative assessment of ATP levels present in the media after 72 hours. […]
Proliferation was assessed using the CellTitre-Glo® assay. […] The IC50 for inhibition of cell growth by Compound 1 was determined for each cell line using ActivityBase software.

## O=C1CCC(N2Cc3cc(CNC(=O)C(F)(F)c4ccc(Cl)cc4)ccc3C2=O)C(=O)N1 (stereo not drawn) [Compound 1, 2-(4-chlorophenyl)-N-((2-(2,6-dioxopiperidin-3-yl)-1-oxoisoindolin-5-yl)methyl)-2,2-difluoroacetamide]
Selected AML cell lines
  induction of apoptosis: marked induction of apoptosis
[1]
  caspase 3 activation: induction of apoptosis
AML cell lines
  IC50: 3 to 75 nM
